# Earlier results as cited in patent US10973866B2, “Compositions and methods for treating, inhibiting the onset, and slowing the progression of erectile dysfunction including naturally occurring age related erectile dysfunction” (K.L.R.M., LLC, priority 2010, dated 2021).
# Experiments:
# [1] = human, in vivo
# erectile function = details: men in their 30's with normal erectile function
Structure (SMILES),side effects [1],erectile function as measured by the IIEF (erectile function),refractory period (erectile function)
NC(=O)NCCC[C@H](N)C(=O)O [L-citrulline],no known side effects,,
CCCc1nn(C)c2c(=O)[nH]c(-c3cc(S(=O)(=O)N4CCN(C)CC4)ccc3OCC)nc12 [Viagra],,increased erectile function,decrease in the refractory period
